{"source": "patent US8609173B2", "about": "“Compositions comprising sweetness enhancers and methods of making them” (Senomyx Inc., priority 2008, dated 2013)", "tested_on": "External panelists", "assay": "Line scale (15-point sucrose equivalence) sensory test, Example 3A/3C, sucrose or LSB, pH 7.1", "assay_type": "in vivo, Human", "set-up": "key to Average Sweetness / Average Bitterness: 15-point scale: 0 = 0% sucrose to 15 = 15% sucrose; references = 5", "method": "Several types of sensory tests were used to determine the efficacy of 5-(neopentyloxy)-1H-benzo[c][1,2,6]thiadiazin-4-amino-2,2-dioxide in enhancing sweetness of sucrose. Two types of tests were conducted: • 1) Sensory scaling tests were performed using a 15-point percent sucrose equivalence scale for sweetness in order to evaluate sweetness enhancement 5-(neopentyloxy)-1H-benzo[c][1,2,6]thiadiazin-4-amino-2,2-dioxide in sucrose, or in fructose. • 2) Paired comparison tests (2-alternative forced choice difference tests) were used to determine sweetness equivalence for solutions of sucrose vs. 5-(neopentyloxy)-1H-benzo[c][1,2,6]thiadiazin-4-amino-2,2-dioxide or buffer vs. 5-(neopentyloxy)-1H-benzo[c][1,2,6]thiadiazin-4-amino-2,2-dioxide. Stimuli:\nTests were performed with sucrose or fructose. Sweetener was evaluated with and/or without 5-(neopentyloxy)-1H-benzo[c][1,2,6]thiadiazin-4-amino-2,2-dioxide at the appropriate concentration(s).\n5-(Neopentyloxy)-1H-benzo[c][1,2,6]thiadiazin-4-amino-2,2-dioxide was prepared as a concentrated stock solution in ethanol to ensure dissolution of the compound. Therefore, all taste solutions contained 0.1% ethanol final concentration. Samples without compound also contained 0.1% ethanol. Low sodium phosphate buffer consists of 0.3 mM KCl, 0.5 mM Na2HPO4, and 0.175 mM KH2PO4.\nIn scaling test situations, the samples were rated on a 15-point scale for sweetness, ranging from 0=0% sucrose to 15=15% sucrose. To evaluate attributes other than sweetness, references are used for training and are prepared according to the table below. Note that each reference was given a score of 5 on the 15-point scale.\nExternal panelists were used for the tests. The exact number of panelists is reported with test results. Subjects were instructed not to eat or drink anything (except water) for at least 1 hour prior to the test.\nPanelists rinsed their mouths with water prior to starting any test. Samples were presented to panelists in a randomized, counterbalanced order. Panelists rinsed with water and had up to a 1 minute delay to clear the mouth of any tastes after each evaluation. Two replicates of each test were performed, unless otherwise noted.", "data": [{"molecule": "OC[C@H]1O[C@@](CO)(O[C@H]2O[C@H](CO)[C@@H](O)[C@H](O)[C@H]2O)[C@@H](O)[C@@H]1O", "note": "[Sucrose, sucrose]", "values": [{"measurement": "Average Sweetness", "setting": "2% Sucrose, Table 10, n = 14", "value": 2.1}, {"measurement": "Average Bitterness", "setting": "2% Sucrose, Table 12, n = 14", "value": 0.1}, {"measurement": "Average Sweetness", "setting": "4% Sucrose, Table 10, n = 14", "value": 3.8}, {"measurement": "Average Bitterness", "setting": "4% Sucrose, Table 12, n = 14", "value": 0.0}, {"measurement": "Average Sweetness", "setting": "6% Sucrose, Table 10, n = 14", "value": 6.0}, {"measurement": "Average Sweetness", "setting": "6% Sucrose, Table 11, n = 14", "value": 7.3}, {"measurement": "Average Bitterness", "setting": "6% Sucrose, Table 12, n = 14", "value": 0.4}, {"measurement": "Average Bitterness", "setting": "6% Sucrose, Table 13, n = 14", "value": 0.4}, {"measurement": "Average Bitterness", "setting": "6% Sucrose, pH 7.1, n = 32", "value": 0.3}, {"measurement": "Average Sweetness", "setting": "6% Sucrose, pH 7.1, n = 32", "value": 6.5}, {"measurement": "Average Sweetness", "setting": "8% Sucrose, Table 11, n = 14", "value": 8.6}, {"measurement": "Average Bitterness", "setting": "8% Sucrose, Table 13, n = 14", "value": 0.4}, {"measurement": "Average Bitterness", "setting": "8% Sucrose, pH 7.1, n = 32", "value": 0.3}, {"measurement": "Average Sweetness", "setting": "8% Sucrose, pH 7.1, n = 32", "value": 7.9}, {"measurement": "Average Sweetness", "setting": "9% Sucrose, Table 11, n = 14", "value": 9.4}, {"measurement": "Average Bitterness", "setting": "9% Sucrose, Table 13, n = 14", "value": 0.6}, {"measurement": "Average Bitterness", "setting": "9% Sucrose, pH 7.1, n = 32", "value": 0.2}, {"measurement": "Average Sweetness", "setting": "9% Sucrose, pH 7.1, n = 32", "value": 8.9}, {"measurement": "Average Sweetness", "setting": "10% Sucrose, Table 11, n = 14", "value": 9.6}, {"measurement": "Average Bitterness", "setting": "10% Sucrose, Table 13, n = 14", "value": 0.2}, {"measurement": "Average Bitterness", "setting": "10% Sucrose, pH 7.1, n = 32", "value": 0.3}, {"measurement": "Average Sweetness", "setting": "10% Sucrose, pH 7.1, n = 32", "value": 9.3}]}]}
